Where only a bound is given, the exact number is not on record here.

The subject of one series is UMSCC10b-Pt/S15. The experiment in a line: Sensitivity to cDDP in vitro, clonogenic assay. Particulars: subline UMSCC10b-Pt/S15. The class given is cell-based, human. On the procedure:
(§1) UMSCC10b cells were selected for cDDP resistance by chronic exposure to cDDP which was supplied by (Bristol-Meyers-Squibb, Princeton, N.Y.). The first three selections were performed at a concentration of 0.5 μM which allowed approximately 10^7 cells to grow to confluence in a 150 cm^2 flask within one week. For every following set of 3 selections, the cDDP concentration was increased by approximately 20% (15,16). The sensitivity of the UMSCC10b cell line and its cDDP-resistant variants to cDDP was determined by clonogenic assay using a 1 h cDDP exposure. A single-cell suspension was plated into 60 mm tissue culture dishes (Corning) at 300 cells per dish in fresh medium. After incubation for 24 h at 37° C., cells had attached to the plates and cDDP was added to the cells and incubated for 1 h following which the cells were washed twice with phosphate-buffered saline and 5 ml of fresh medium was added. Cultures were incubated for an additional 13-15 days following which there were fixed with methanol, stained with Giemsa, and clusters of >50 cells were scored as colonies. cDDP-selected cells were cultured in drug-free media for 2 weeks before cDDP sensitivity was determined by clonogenic assay.

In another series the test system is UMSCC10b-Pt/S6. The experiment in a line: Sensitivity to cDDP in vitro, clonogenic assay. Format: cell-based, human. Particulars: subline UMSCC10b-Pt/S6. As to the method:
as §1

The subject of the next series is GADD153 mRNA. The experiment in a line: GADD153 mRNA level in UMSCC10b xenografts in nude mice after cDDP. Format: in vivo. On the procedure:
(§2) The various aspects of the invention are also useful for xenografted tumors. Nude mice were inoculated s.c. with human UMSCC10b tumor cells, and then treated with cDDP (0, 10, 15, 30 or 50 mg/kg cDDP i.p.) when the tumors reached 1 ml in volume. FIG. 5a depicts the results obtained when tumors were harvested at 24 h after cDDP treatment. […] The time course of the change in message level in the xenografts was similar to that observed with in vitro exposure of the cells (FIG. 5b). Thus, GADD153 mRNA levels can be increased in vivo by cDDP doses around the maximum tolerated dose in this system (15-20 mg/kg cDDP).
UMSCC10b cells were injected subcutaneously over the shoulder of athymic (BALB/c nu/nu) female mice, 3-4 weeks of age (Harlan Sprague Dawley, Indianapolis, Ind.). The xenografts were allowed to grow until they reached approximately […] in volume, at which time cDDP treatment was initiated. […]
GADD153 message levels were quantified using a modification of the technique reported by Horikoshi et al (20). […] PCR products were separated on a 8 M (6%) acrylamide gel and analyzed using a Molecular Imaging System (BioRad, Hercules, Calif.). For each RNA sample to be analyzed, a series of PCR reactions was performed to generate a graph of the amount of PCR product as a function of input CDNA for both GADD153 and β-ACTIN. […]

A short description of series [1]: Maximum tolerated dose of cDDP in the nude mouse xenograft system. The class given is in vivo. The settings on record: nude mice, i.p. As to the method:
as §2

In series [2] the test system is stage IV head and neck cancer. The experiment in a line: Tumor clinical response of patients to cDDP-based treatment. Format: in vivo, human. The settings on record: i.a. cDDP with i.v. sodium thiosulfate, with or without radiation therapy. As to the method: Thirty-two patients with previously untreated stage IV head and neck cancer were treated at the UCSD Cancer Center on a phase I/II experimental protocol. All patients had been considered to have unresectable tumors. All patients received i.a. cDDP (150-200 mg/M^2) and i.v. sodium thiosulfate infusion concurrently. The details of this treatment program have been published elsewhere by the present inventors (17,18), which description is specifically incorporated herein by reference. cDDP was dissolved in 400 ml of 0.9% saline and infused over 3-5 minutes through a microcatheter placed angiographically to selectively encompass the dominant blood supply of the targeted tumor. Simultaneous with the cDDP infusion, sodium thiosulfate was infused i.v. at a dose of 9 g/m^2 dissolved in 300 ml of distilled water over 3 minutes, followed by 12 g/m^2 dissolved in one liter of distilled water over 6 h by continuous infusion to prevent severe nephrotoxicity. Treatment was repeated weekly for a total of 4 doses. In addition, 17 of the 32 patients received radiotherapy in doses of […] (×35 fractions) starting concurrently with the start of cDDP treatment. Needle aspiration or small cutting needle biopsies were obtained just before and at 24 h following the first dose of cDDP. Tumor response was assessed at 2 months using criteria based on physical examination, repeat computed tomography/magnetic resonance imaging studies, and repeat endoscopy and biopsy.

Consider `[NH2][Pt]([NH2])([Cl])[Cl]` [cDDP, cisplatin], for which the figures for the “cDDP resistance relative to parental cells” value in the series on UMSCC10b-Pt/S15 and in the series with UMSCC10b-Pt/S6 were 6 fold and 3 fold, respectively. In the series with GADD153 mRNA (UMSCC10b xenografts after treatment), the “time of return of GADD153 mRNA toward basal levels in vivo” value is at most 96 h. Also, in the series with GADD153 mRNA (tumors harvested 24 h after cDDP i.p., 0-50 mg/kg), the “GADD153 mRNA levels in xenografts” value is “increased as a function of cDDP dose”. For the same molecule, the maximum tolerated dose in series [1] lay in the range of 15 to 20 mg/kg. The “patients who achieved a partial regression (PR)” value in series [2] (assessed at 2 months) is on record as 8 of the 32. Also, in series [2] (assessed at 2 months), the “patients who attained a complete regression of the tumor (CR)” value is 17 of the 32. Besides, in series [2] (of 32 patients), the “patients who had tumor progression (NR)” value turned out to be 7 patients.

(Values after patent publication US6447997B1, “Gene coding for GADD153 as a clinical diagnostic and prognostic in cancer therapy” (Research Development Foundation, priority 1997, dated 2002).)
